How the values were obtained:
[1] = type: physicochemical
Procedure: The solids were filtered and analyzed by XRD to determine the resulting form(s). The solvents used in this study include: water, acetonitrile, isopropyl ether/acetonitrile (1:4), 2-butanol/water (1:1), 1-propanol/water (1:1), t-butanol/water (1:1), ethanol/water (1:1), THF/water (1:1), acetone/water (1:1), dioxane/water (1:1), 2-butanone/water (1:1), methanol, DMF/water (1:1), ethyl acetate/water (1:1), and heptane.
A competitive study was also carried out. […] Samples were stirred for 3 days and filtered.

[2] = IM injection of aqueous suspension and vegetable oil solution of abiraterone acetate; type: in vivo; conditions: vegetable oil solution compared with aqueous suspension, rats
Procedure: Typically, the abiraterone prodrugs of the present disclosure are formulated as a non-aqueous solution or suspension. […] For example, as detailed herein, IM injections of an aqueous suspension and a vegetable oil solution of the abiraterone acetate prodrug were evaluated in rats. […] Accordingly, in some embodiments, the abiraterone prodrug formulations herein can include an abiraterone prodrug of the present disclosure (e.g., compound of Formula I or II) dissolved or dispersed in a pharmaceutically acceptable carrier. In some embodiments, the pharmaceutically acceptable carrier can be any suitable nonaqueous vehicle suitable for injection, such as those described in U.S. Pharmacopeia. In some embodiments, the pharmaceutically acceptable carrier can be a pharmaceutically acceptable oil, e.g., a vegetable oil, castor oil, corn oil, sesame oil, cottonseed oil, peanut oil, poppy seed oil, tea seed oil, or soybean oil. In some embodiments, the pharmaceutically acceptable oil can be oils (e.g., described herein), suitable for use as vehicles for injection, e.g., meeting the criteria as described in the corresponding U.S. Pharmacopeia monograph. In some embodiments, the pharmaceutically acceptable oil can be an oil of vegetable origin suitable for use as vehicles for injection. […]

Compound	thermodynamic stability of polymorph [1]	blood plasma levels and duration of exposure of abiraterone [2]
CCCCCCCCCC(=O)O[C@H]1CC[C@@]2(C)C(=CC[C@@H]3[C@@H]2CC[C@]2(C)C(c4cccnc4)=CC[C@@H]32)C1 [Form A, abiraterone decanoate]	thermodynamically stable form under ambient conditions	–
CC(=O)O[C@H]1CC[C@@]2(C)C(=CC[C@@H]3[C@@H]2CC[C@]2(C)C(c4cccnc4)=CC[C@@H]32)C1 [abiraterone acetate, (3β)-17-(3-Pyridyl)androsta-5, acetate]	–	highest blood plasma levels and the longest duration of exposure
